{
  "source": "paper PMC3352927",
  "about": "“Development and Validation of an Automated High-Throughput System for Zebrafish In Vivo Screenings” (PLoS ONE, 2012)",
  "key": {"zebrafish embryos [1]": {"tested_on": "zebrafish embryos", "assay": "Embryo analysis at 72 hpf (blood circulation and ISVs development)", "assay_type": "in vivo", "conditions": "for Blood circulation / ISVs appearance: 72 hpf", "protocol": "Embryos from the Flk1:copGFP line were treated with the indicated compounds at 22–23 hpf in 500 µl of E3 in p24 well plates (5 embryos per well). After 48 hours of treatment embryos were anesthetized with 10 µl Tricaine (final concentration 0.02%) and analyzed for the presence of blood circulation and ISVs development using a Leica M205 FA stereoscope equipped with a Hamamatsu C10600 camera."}, "zebrafish embryos [2]": {"tested_on": "zebrafish embryos", "assay": "Automated angiogenesis assay (ISV formation), Flk1:copGFP embryos treated at 22-26 hpf, read at 48 hpf", "assay_type": "in vivo", "conditions": "for Efective concentration (minimum concentration that showed an effect): given when IC50 could not be calculated; for Angiog. inhibition: presence or absence of an anti-angiogenic effect, 0.01-100 µM; for Anti-angiogenic phenotype (ISVs / DLAV): treated at 24 hpf, checked at 48 hpf", "description": "In the angiogenesis assay, the fluorescent images taken were processed using AxioVision 4.6.3 and a macro was developed to quantify an indirect measure of the area of the ISVs. […] However, we usually include a manual counting to offer a more detailed measurement of effect.\nIn the automatic analysis of angiogenesis, it is first necessary to perform a sequence of automated filtering functions on the image to extract information, define the region of interest (ROI), that in this case is the part of the tail containing the ISVs, and allow the measurement of the embryo length. Recovering a previous image, new filtering functions are applied to the ROI. A gradient image containing the ISVs, the DLAV (Dorsal Longitudinal Anastomotic Vessel), the PCV and the DA is created. Next, fluorescent areas that should not be quantified are discarded. Finally, only the areas comprised between the ISVs, the DLAV and the PCV or the DA are measured (Figure 4). In that way, when the vessels are incomplete or the DLAV is not present, an enclosed area is not present and therefore not measured.\nThe means obtained from the treated embryos were compared with the control mean. When statistically significant differences were detected a deeper analysis was done manually. In this case the parameters quantified were:\n• The total number of ISVs present in the trunk of the embryos (from where the largest bulge of the yolk ends to the end of the tail). • Number of complete ISVs (reached the dorsal part of the embryo and formed the DLAV).\nA curve of six concentrations (0.01, 0.1, 1, 10, 30 and 100 µM) was performed for all of them. […] IC50 was calculated when a clear dose-dependent anti-angiogenesis effect was detected. Otherwise, the minimum dose at which the inhibition of angiogenesis was observed is shown (Table 4).\nAt this time, chorions were removed with protease from Streptomyces griseus (Sigma-Aldrich) (1.5 mg/ml for 6 minutes) and the embryos were sorted and dispensed 1 per well in a 96 well assay plate. Each experimental condition was tested in a row with ten embryos. Embryos were dispensed in an average final volume of 90 µl of E3 media. 90 µl of the test items (DMSO and positive control KRN633 included) previously diluted 100 times were dispensed into each well of the assay plate containing the embryos to get the final volume of 180 µl and the desired final concentration.\nThe microscope scanned the wells by columns and a bright field image and a fluorescent image (2.5×magnification) were acquired per well. Then, the image analysis was performed and the result file generated.\nStatistical analysis and graphical representation of the data were performed using SSPS (Statistical Package for the Social Sciences) software and Prism (Graph Pad Software) for IC50 calculations (non linear regression, sigmoidal dose-response with variable slope). […] In the angiogenesis assay, for comparisons between two groups, two-tailed t-test was used assuming unequal variances. For comparisons between more than two groups one-way analysis of variance followed by Dunnett’s post-test was applied to compare each data point with vehicle control."}, "[3]": {"assay": "Dilution of compound in E3 medium", "assay_type": "physicochemical"}},
  "note": "Entries after “also recorded” stand apart in the source; their conditions may differ.",
  "data": [
    {"smiles": "COc1cc2ncc(-c3ccccc3)nc2cc1OC", "note": "[AG-1296]", "values": [
      {"measurement": "Blood circulation", "setting": "zebrafish embryos [1]", "result": "impaired blood circulation"},
      {"measurement": "ISVs appearance", "setting": "zebrafish embryos [1]", "result": "thinner ISVs that were disrupted in some cases"},
      {"measurement": "Efective concentration (minimum concentration that showed an effect)", "setting": "zebrafish embryos [2]", "result": 20, "unit": "µM"},
      {"measurement": "Angiog. inhibition", "setting": "zebrafish embryos [2]", "result": "Yes"},
      {"measurement": "Anti-angiogenic phenotype (ISVs / DLAV)", "setting": "zebrafish embryos [2]", "result": "moderate effect that did not increase with higher doses"},
      {"measurement": "Anti-angiogenic phenotype (ISVs / DLAV)", "setting": "zebrafish embryos [2]; listed as AG1296", "result": "inhibit proper development of the DLAV; also recorded: thinner ISVs rather than incomplete vessel formation"}
    ]},
    {"smiles": "COc1cc(Nc2c(C#N)cnc3cc(OCCCN4CCN(C)CC4)c(OC)cc23)c(Cl)cc1Cl", "note": "[Bosutinib]", "values": [
      {"measurement": "Blood circulation", "setting": "zebrafish embryos [1]", "result": "impaired blood circulation"},
      {"measurement": "ISVs appearance", "setting": "zebrafish embryos [1]", "result": "thinner ISVs that were disrupted in some cases"},
      {"measurement": "Efective concentration (minimum concentration that showed an effect)", "setting": "zebrafish embryos [2]", "result": 50, "unit": "µM"},
      {"measurement": "Angiog. inhibition", "setting": "zebrafish embryos [2]", "result": "Yes"},
      {"measurement": "Anti-angiogenic phenotype (ISVs / DLAV)", "setting": "zebrafish embryos [2]", "result": "moderate effect that did not increase with higher doses"}
    ]},
    {"smiles": "CS(=O)(=O)Nc1ccc([N+](=O)[O-])cc1OC1CCCCC1", "note": "[NS-398]", "values": [
      {"measurement": "Lethality", "setting": "zebrafish embryos [1]; treatment to 72 hpf at the 48 hpf doses which inhibited angiogenesis", "result": "lethal"},
      {"measurement": "Efective concentration (minimum concentration that showed an effect)", "setting": "zebrafish embryos [2]", "result": 30, "unit": "µM"},
      {"measurement": "Angiog. inhibition", "setting": "zebrafish embryos [2]", "result": "Yes"},
      {"measurement": "Anti-angiogenic phenotype (ISVs / DLAV)", "setting": "zebrafish embryos [2]", "result": "moderate effect that did not increase with higher doses"}
    ]},
    {"smiles": "Cn1c(=O)n(-c2ccc(C(C)(C)C#N)cc2)c2c3cc(-c4cnc5ccccc5c4)ccc3ncc21", "note": "[NVP-BEZ235]", "values": [
      {"measurement": "Blood circulation", "setting": "zebrafish embryos [1]", "result": "impaired blood circulation"},
      {"measurement": "ISVs appearance", "setting": "zebrafish embryos [1]", "result": "thinner ISVs that were disrupted in some cases"},
      {"measurement": "Efective concentration (minimum concentration that showed an effect)", "setting": "zebrafish embryos [2]", "result": 10, "unit": "µM"},
      {"measurement": "Angiog. inhibition", "setting": "zebrafish embryos [2]", "result": "Yes"},
      {"measurement": "Anti-angiogenic phenotype (ISVs / DLAV)", "setting": "zebrafish embryos [2]", "result": "moderate effect that did not increase with higher doses"}
    ]},
    {"smiles": "CCN(CC)CCCCNc1ncc2cc(-c3cc(OC)cc(OC)c3)c(NC(=O)NC(C)(C)C)nc2n1", "note": "[PD173074]", "values": [
      {"measurement": "Blood circulation", "setting": "zebrafish embryos [1]", "result": "impaired blood circulation"},
      {"measurement": "ISVs appearance", "setting": "zebrafish embryos [1]", "result": "thinner ISVs that were disrupted in some cases"},
      {"measurement": "Efective concentration (minimum concentration that showed an effect)", "setting": "zebrafish embryos [2]", "result": 100, "unit": "µM"},
      {"measurement": "Angiog. inhibition", "setting": "zebrafish embryos [2]", "result": "Yes"},
      {"measurement": "Anti-angiogenic phenotype (ISVs / DLAV)", "setting": "zebrafish embryos [2]", "result": "moderate effect that did not increase with higher doses; also recorded: inhibit proper development of the DLAV; also recorded: thinner ISVs rather than incomplete vessel formation"}
    ]},
    {"smiles": "CC(=O)O[C@H]1C(=O)[C@@]2(C)[C@H]([C@H](OC(=O)c3ccccc3)[C@]3(O)C[C@H](OC(=O)[C@H](O)[C@@H](NC(=O)c4ccccc4)c4ccccc4)C(C)=C1C3(C)C)[C@]1(OC(C)=O)CO[C@@H]1C[C@@H]2O", "note": "[Paclitaxel]", "values": [
      {"measurement": "Behaviour after dilution in E3 medium", "setting": "[3]", "result": "precipitated"},
      {"measurement": "Inhibition of angiogenesis at maximum dose tested in medium", "setting": "zebrafish embryos [2]; 10 µM in E3 medium", "result": "not enough to induce inhibition of angiogenesis"},
      {"measurement": "Angiog. inhibition", "setting": "zebrafish embryos [2]", "result": "Yes"},
      {"measurement": "Anti-angiogenic phenotype (ISVs / DLAV)", "setting": "zebrafish embryos [2]", "result": "the formation of ISVs was perturbed with defective or total absence of sprouting"}
    ]}
  ]
}
